The values below come from ChEMBL document CHEMBL1201862, “PubChem BioAssay data set” (2004).

Active and inactive are the calls of the source.

A short description of experiment [1]: HGIII-sPLA2 enzyme inhibition potency – biochemical, QFRET, IC50, dose response (AID 743457).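 Note: green fluorescence rise as the enzyme cleaves BODIPY PC-A2 in liposomes.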
Experiment [2] concerns Streptococcus sp. 'group A'. Briefly: Streptococcus pyogenes SK(-)GAS viability under kanamycin – luminescence, BacTiterGlo, confirmation, counter-screen for streptokinase expression inhibitor project, dose response (AID 1900). The format is functional, organism-based. In general terms: The purpose of a counterscreen is to sort out artefacts and off-target activity.
The next experiment has as its system Streptococcus. Briefly: GAS UMAA2166 growth inhibition – luminescence, BacTiterGlo, counter-screen for streptokinase expression inhibitor project, dose response (AID 1915).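 Note: potency for reduction of bacterial viability or growth.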 The format is functional, organism-based.
For another experiment, the target named is Albumin (Bos taurus, UniProt P02769). Briefly: Counterscreen for inhibitors of T-cell receptor (TCR)-CD3 interaction: Fluorescence-based biochemical high throughput dose response assay to identify inhibitors of T-cell receptor (TCR)-CD3 interaction using a TAMRA-labeled BSA probe. The format is functional.
For a further experiment, the target named is T1, Aminopeptidase N (Plasmodium falciparum FcB1/Columbia, UniProt O96935).
T1 sequence (O96935 whole entry): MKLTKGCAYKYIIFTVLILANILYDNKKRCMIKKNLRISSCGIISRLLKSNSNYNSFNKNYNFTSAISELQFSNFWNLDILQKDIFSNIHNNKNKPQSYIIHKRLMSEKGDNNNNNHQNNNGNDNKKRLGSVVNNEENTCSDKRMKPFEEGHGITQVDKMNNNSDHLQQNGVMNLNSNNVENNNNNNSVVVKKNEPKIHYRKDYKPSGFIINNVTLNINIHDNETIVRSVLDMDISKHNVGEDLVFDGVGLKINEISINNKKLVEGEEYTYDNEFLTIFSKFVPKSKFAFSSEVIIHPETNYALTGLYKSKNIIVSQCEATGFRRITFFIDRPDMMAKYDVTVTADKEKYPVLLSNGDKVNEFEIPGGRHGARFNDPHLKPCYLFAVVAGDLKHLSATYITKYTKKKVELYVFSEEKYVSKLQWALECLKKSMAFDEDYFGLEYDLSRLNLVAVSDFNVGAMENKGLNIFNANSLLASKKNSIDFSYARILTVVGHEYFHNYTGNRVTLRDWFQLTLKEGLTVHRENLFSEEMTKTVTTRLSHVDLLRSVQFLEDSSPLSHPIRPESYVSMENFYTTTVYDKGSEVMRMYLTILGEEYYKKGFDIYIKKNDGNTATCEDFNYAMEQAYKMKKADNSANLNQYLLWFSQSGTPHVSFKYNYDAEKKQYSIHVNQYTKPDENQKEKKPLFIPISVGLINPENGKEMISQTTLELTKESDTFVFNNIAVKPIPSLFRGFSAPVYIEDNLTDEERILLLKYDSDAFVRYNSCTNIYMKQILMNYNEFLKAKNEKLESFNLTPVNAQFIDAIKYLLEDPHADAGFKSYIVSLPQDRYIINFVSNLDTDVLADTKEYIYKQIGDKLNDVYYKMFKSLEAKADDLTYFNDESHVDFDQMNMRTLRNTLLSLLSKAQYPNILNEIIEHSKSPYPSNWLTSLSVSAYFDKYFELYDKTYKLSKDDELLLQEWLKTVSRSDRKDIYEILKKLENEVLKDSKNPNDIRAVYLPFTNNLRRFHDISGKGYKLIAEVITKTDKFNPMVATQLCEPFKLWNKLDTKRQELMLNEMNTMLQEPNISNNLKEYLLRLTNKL
Briefly: malaria alanyl aminopeptidase activity blockers – biochemical, fluorogenic H-Leu-NHMec substrate, 1536-well (AID 1445). Details: species or system Plasmodium falciparum 3D7, 3D7.

For experiment [3], the target named is T2, Trace amine-associated receptor 1 (Homo sapiens, UniProt Q96RJ0).
T2 sequence (Q96RJ0 whole entry): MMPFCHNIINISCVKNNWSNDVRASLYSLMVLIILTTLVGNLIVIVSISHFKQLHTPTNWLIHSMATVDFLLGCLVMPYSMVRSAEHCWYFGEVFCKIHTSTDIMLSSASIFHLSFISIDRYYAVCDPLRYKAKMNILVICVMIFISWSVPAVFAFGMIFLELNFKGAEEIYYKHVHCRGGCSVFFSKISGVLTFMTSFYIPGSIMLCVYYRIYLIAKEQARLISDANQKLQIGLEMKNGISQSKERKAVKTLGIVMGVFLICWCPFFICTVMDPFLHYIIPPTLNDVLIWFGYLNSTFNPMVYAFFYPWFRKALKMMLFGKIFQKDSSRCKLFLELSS
In words: Counterscreen for agonists of the human trace amine associated receptor 1 (hTAAR1): Fluorescence-based cell-based high throughput dose response assay to identify hTAAR1 agonist that also desensitize TAAR1 receptor response. The format is functional.

Experiment [4] concerns the target T2, Trace amine-associated receptor 1. In words: Fluorescence-based cell-based high throughput dose response assay to identify agonists of the human trace amine associated receptor 1 (TAAR1). The format is functional.
Experiment [5] is described as follows: cells. The format is functional, cell-based.
A short description of experiment [6]: cells. The format is functional, cell-based. This is another data set of the same source.
Experiment [7] is described as follows: Trypanosoma cruzi growth suppression in host cells – NIH3T3 host cells, beta-gal luminescence, confirmation (AID 2044).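 Note: intracellular parasites grown in NIH/3T3 mouse fibroblasts as host cells; luminescent beta-galactosidase reporter signal from transgenic T. cruzi replicating inside host cells; inhibitors lower the luminescence signal.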 The format is functional, cell-based.
The nature of experiment [8]: NIH3T3 cell viability loss – ATP luminescence, mouse fibroblasts, counter-screen, dose response (AID 2010).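 Note: cells exposed to compound for about 90 hours before reading.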 The format is functional, cell-based.
Experiment [9] addresses T3, Mannose-6-phosphate isomerase (Homo sapiens, UniProt P34949).
T3 sequence (P34949 whole entry): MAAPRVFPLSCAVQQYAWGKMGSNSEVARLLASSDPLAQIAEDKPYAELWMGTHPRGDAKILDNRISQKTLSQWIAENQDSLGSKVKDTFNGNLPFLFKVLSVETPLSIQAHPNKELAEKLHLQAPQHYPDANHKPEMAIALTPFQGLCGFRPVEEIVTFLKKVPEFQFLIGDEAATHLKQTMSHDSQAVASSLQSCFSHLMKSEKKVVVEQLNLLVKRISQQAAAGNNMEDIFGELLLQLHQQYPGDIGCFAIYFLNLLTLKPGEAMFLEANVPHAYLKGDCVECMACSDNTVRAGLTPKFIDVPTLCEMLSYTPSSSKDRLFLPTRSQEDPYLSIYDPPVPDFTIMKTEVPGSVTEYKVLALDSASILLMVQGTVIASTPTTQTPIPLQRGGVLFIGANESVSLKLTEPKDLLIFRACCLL
Briefly: MPI inhibition at elevated mannose 6-phosphate – biochemical, fluorescence intensity, high mannose 6-phosphate, primary screen (AID 1220).

Experiment [10] can be described thus: cells. The format is functional.

Albumin, sequence (P02769 whole entry): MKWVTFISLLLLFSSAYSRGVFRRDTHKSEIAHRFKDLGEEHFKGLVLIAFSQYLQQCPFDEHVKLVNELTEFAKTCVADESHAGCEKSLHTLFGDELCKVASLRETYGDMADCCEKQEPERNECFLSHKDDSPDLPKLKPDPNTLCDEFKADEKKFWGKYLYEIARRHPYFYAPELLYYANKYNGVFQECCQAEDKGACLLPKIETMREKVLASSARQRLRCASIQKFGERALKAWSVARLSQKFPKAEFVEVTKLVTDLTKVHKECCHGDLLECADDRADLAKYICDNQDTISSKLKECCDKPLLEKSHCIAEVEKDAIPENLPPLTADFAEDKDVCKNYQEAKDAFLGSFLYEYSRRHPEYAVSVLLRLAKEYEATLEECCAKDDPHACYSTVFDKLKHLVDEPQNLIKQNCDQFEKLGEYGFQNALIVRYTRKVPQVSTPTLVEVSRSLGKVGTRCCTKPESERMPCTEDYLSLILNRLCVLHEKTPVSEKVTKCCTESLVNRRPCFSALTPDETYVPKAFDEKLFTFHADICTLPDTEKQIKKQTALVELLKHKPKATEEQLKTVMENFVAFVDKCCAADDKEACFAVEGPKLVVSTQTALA

On to `Cn1ccc2c(N3CCCCCCC3)cc3c(c21)C1CCC3O1` (configuration not stated), for which the IC50 in [1] is > 122 µM (inactive).

As to `CC(C)c1cc(C(=O)NN=C(S)NCc2ccco2)c(O)c(C(C)C)c1`, the IC50 in [1] is 18.8 µM (inactive).

`O=C(CP(=O)(c1ccccc1)c1ccccc1)N/N=C/c1cc(Br)cc(Br)c1O`: the EC50 in experiment [2] is 0.8 µM (active); with Streptococcus it was 2.32 µM (active). For the same compound, the IC50 at Albumin is > 94.2 µM (inactive); at Aminopeptidase N, 12.4 µM (active).

As for `CCCCNC(=S)N/N=C/c1cccc(OCC)c1O`, the IC50 in [1] was > 122 µM (inactive).

For `COc1ccc(-c2cc(C3CCN(CC(O)C(F)(F)F)CC3)[nH]n2)cc1` (configuration not stated), the results for the IC50 (in [3]; in “cells [5]”) were 7.6 µM (active) and > 29.9 µM (inactive), respectively. For the same compound, the values for the EC50 (in experiment [4]; in “cells [6]”) were 3.52 µM (active) and > 29.9 µM (inactive), respectively.

As for `CN(CCc1ccccc1)Cc1c[nH]c2ccccc12`, the IC50 in [3] is 13.2 µM (inactive); in the experiment “cells [5]”, > 29.9 µM (inactive). Besides, the EC50 in experiment [4] was 1.05 µM (active); in “cells [6]” it was > 29.9 µM (inactive).

Consider `Cc1c(Cl)cccc1Nc1nc(NCCO)c2ccccc2n1`, for which the EC50 was 1.2 µM (active) in experiment [7], 2.94 µM (active) in experiment [4], > 60 µM (not active) in experiment [8] and > 29.9 µM (inactive) in “cells [6]”. Besides, the IC50 in experiment [3] is 6.83 µM (active); in “cells [5]”, > 29.9 µM (inactive).

Regarding `O=c1nc(N2CCCCC2)nc(Nc2ccccc2)[nH]1`, the IC50 in experiment [3] was 4.65 µM (active); on Aminopeptidase N it was 51.9 µM (active). For the same compound, the EC50 in experiment [4] was 3.44 µM (active).

As for `O=C(Cc1nnc(NC(=O)Nc2ccccc2)s1)Nc1ccccc1`, the IC50 in experiment [3] was > 1.11 µM (active); in the experiment “cells [5]”, > 29.9 µM (inactive). The concentration giving a half-maximal response (EC50) was > 0.0015 µM (active) in [4] and > 29.9 µM (inactive) in the experiment “cells [6]”.

With `CC1CCCN(CCC(=O)c2ccc(Br)cc2)C1` (configuration not stated), the IC50 is > 50 µM (not active) in experiment [9], 20.1 µM (inactive) in [3], 15.2 µM (active) in the experiment “cells [10]” and > 29.9 µM (inactive) in “cells [5]”. For the same compound, the EC50 is 1.67 µM (active) in [4] and > 29.9 µM (inactive) in the experiment “cells [6]”.

On to `Cc1ccc(N2CN(CCc3ccccc3)CN=C2S)cc1`, for which the IC50 in experiment [3] was 7.74 µM (active); in “cells [5]”, > 29.9 µM (inactive). Further, the EC50 is 1.16 µM (active) in experiment [4] and > 29.9 µM (inactive) in the experiment “cells [6]”.

For the compound `C=CCNC(S)=NNc1nc(O)c2c(n1)-c1ccccc1CC21CCCCC1`, the IC50 in [1] was 73.1 µM (inactive).

For `O=C(CCNC(=O)c1ccc(Br)cc1)NNC(=O)c1ccccc1O`, the IC50 at Albumin was > 94.1 µM (inactive).

As to `COc1ccc(NC(=O)NNC(=O)c2ccc3ccccc3c2O)cc1OC`, the IC50 at Albumin is > 94.1 µM (inactive); in [1], > 122 µM (inactive).

The IC50 is the concentration needed to halve the response being measured. The term EC50 denotes the midpoint of the concentration-response curve.
